According to ChEMBL document CHEMBL1201862, “PubChem BioAssay data set” (2004):
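Assay format: 96-well plates, 48-hour exposure. The concentration for 50% growth inhibition is given as GI50.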 Activity calls are given as the source filed them. No stated cut-off is given here; in the data, active = GI50 up to about 1.1 µM and inactive = higher.

Legend:
Assay in all cases: NCI tumour cell line growth inhibition, 48 h
786-0 = test system: 786-0
BT-549 = test system: BT-549
COLO 205 = test system: COLO 205
DU-145 = test system: DU-145
EKVX = test system: EKVX
HCC 2998 = test system: HCC 2998
HCT-15 = test system: HCT-15
HL-60 = test system: HL-60
HOP-92 = test system: HOP-92
MDA-MB-435 = test system: MDA-MB-435
NCI-H226 = test system: NCI-H226
NCI-H522 = test system: NCI-H522
OVCAR-4 = test system: OVCAR-4
OVCAR-5 = test system: OVCAR-5
SNB-75 = test system: SNB-75
SW-620 = test system: SW-620
T47D = test system: T47D
U-251 = test system: U-251
UACC-257 = test system: UACC-257

SMILES | GI50 (786-0) | GI50 (BT-549) | GI50 (COLO 205) | GI50 (DU-145) | GI50 (EKVX) | GI50 (HCC 2998) | GI50 (HCT-15) [µM] | GI50 (HL-60) | GI50 (HOP-92) | GI50 (MDA-MB-435) | GI50 (NCI-H226) | GI50 (NCI-H522) | GI50 (OVCAR-4) | GI50 (OVCAR-5) | GI50 (SNB-75) | GI50 (SW-620) | GI50 (T47D) | GI50 (U-251) | GI50 (UACC-257)
Fc1ccc(N2C(=S)SC(=N\c3ccccc3)/C2=N/c2ccccc2)cc1 | > 100 µM (inactive) | > 100 µM (inactive) | > 100 µM (inactive) | > 100 µM (inactive) | 97.5 µM (inactive) | > 100 µM (inactive) | > 85.1 | 53.8 µM (inactive) | > 42.8 µM (inactive) | > 100 µM (inactive) | > 100 µM (inactive) | > 100 µM (inactive) | > 57.7 µM (inactive) | > 85.3 µM (inactive) | > 100 µM (inactive) | > 100 µM (inactive) | 25.5 µM (inactive) | > 87.7 µM (inactive) | > 67.1 µM (inactive)
C/C1=C\[C@H](C)C[C@H](C)OC(=O)[C@H](C)NC(=O)[C@@H](Cc2ccc(O)c(Br)c2)N(C)C(=O)[C@H](C)NC(=O)[C@@H](C)C1 | 0.00752 µM (active) | 0.132 µM (active) | 0.00728 µM (active) | 0.155 µM (active) | 0.0652 µM (active) | 0.00408 µM (active) | 0.982 | 0.00447 µM (active) | 0.0533 µM (active) | 0.0735 µM (active) | 0.0505 µM (active) | 0.0149 µM (active) | 0.0631 µM (active) | 10.7 µM (inactive) | 0.0184 µM (active) | 0.00385 µM (active) | 0.282 µM (active) | 0.00991 µM (active) | 0.0927 µM (active)
CCOC(=O)c1nc2ccccc2nc1NCc1cc(OC)c(OC)c(OC)c1 | 72.9 µM (inactive) | 34.8 µM (inactive) | 38.2 µM (inactive) | > 100 µM (inactive) | 51.1 µM (inactive) | 53.7 µM (inactive) | 30.3 | 33.3 µM (inactive) | 34.3 µM (inactive) | 20.3 µM (inactive) | 83 µM (inactive) | 33 µM (inactive) | 29.6 µM (inactive) | > 100 µM (inactive) | 89.5 µM (inactive) | 42.2 µM (inactive) | 35.5 µM (inactive) | 42.1 µM (inactive) | 75 µM (inactive)
CCC(CO)Nc1nc(NCc2ccccc2)c2ncn(C(C)C)c2n1 (stereo not drawn) [(RS)-ROSCOVITINE] | 20.2 µM (inactive) | 18.5 µM (inactive) | 15 µM (inactive) | 35.8 µM (inactive) | 18.2 µM (inactive) | 15.3 µM (inactive) | 17.9 | 17.5 µM (inactive) | 17.2 µM (inactive) | 23.4 µM (inactive) | 15 µM (inactive) | 16.5 µM (inactive) | 20.2 µM (inactive) | 20.7 µM (inactive) | 13.8 µM (inactive) | 25.2 µM (inactive) | 32.8 µM (inactive) | 27.9 µM (inactive) | 30.3 µM (inactive)
COc1ccc(NS(=O)(=O)c2ccc3ncn(NS(=O)(=O)c4ccc(I)cc4)c(=O)c3c2)cc1 | > 100 µM (inactive) | > 10 µM (inactive) | > 100 µM (inactive) | > 100 µM (inactive) | > 100 µM (inactive) | > 100 µM (inactive) | > 100 | 49.3 µM (inactive) | > 100 µM (inactive) | 84.1 µM (inactive) | 9.86 µM (inactive) | > 100 µM (inactive) | > 100 µM (inactive) | > 100 µM (inactive) | > 100 µM (inactive) | > 100 µM (inactive) | > 100 µM (inactive) | > 100 µM (inactive) | > 100 µM (inactive)
C#CC[C@@H]1C(=O)N(Cc2ccc(OC)cc2)[C@@H](C(C)C)C(=O)N1Cc1ccc(OC)cc1 | 44.9 µM (inactive) | 29.4 µM (inactive) | 19.4 µM (inactive) | 29.5 µM (inactive) | 28.4 µM (inactive) | 47.1 µM (inactive) | 40.5 | 3.66 µM (inactive) | 84.3 µM (inactive) | 36.1 µM (inactive) | 35.2 µM (inactive) | 28 µM (inactive) | 74 µM (inactive) | 67.5 µM (inactive) | 24 µM (inactive) | 40.5 µM (inactive) | 16.4 µM (inactive) | 39.7 µM (inactive) | 29.9 µM (inactive)
